Reference: patent publication US20190226949A1, “IRIDIUM COMPLEXES FOR CELLULAR IMAGING” (UNIVERSITY OF SOUTH AUSTRALIA, priority 2016, published 2019)
Where “and” joins values, the source holds several entries; their conditions need not be identical. Equal values may be shown once.

Experiments:
[1] = Photophysical measurements (absorption, emission, lifetime, quantum yield) in diluted solutions; type: physicochemical; conditions: for Emission λem / τaer, excited state lifetime (relative weight in parentheses) / τdeaer, excited state lifetime (relative weight in parentheses): 298K; for Φaer, quantum yield / Φdeaer, quantum yield: versus Ru(bpy)3^2+ in water (φr = 0.028); for τdeaer, excited state lifetime (relative weight in parentheses) / Φdeaer, quantum yield: deaerated; for knr: calculated as [(1 − φ)/τ] from deaerated solutions; for kr: calculated as [φ/τ] from deaerated solutions; for Φ, quantum yield: versus Ru(bpy)3^2+ in water
From the text: A summary of the photophysical data for the complexes as diluted solutions (10^−5 M) in dichloromethane, water, PBS, lysosomal fluid solution, and ethyl laurate is reported in Table 1. All the listed aqueous media also contain 0.1% DMSO to favour the solubilisation of the complexes. The various solvents have been chosen to identify potential modulations on the photophysical behaviour of the iridium complexes in diverse cellular environments such as cytoplasm, endosome/lysosomes acidic organelles, or lipid-rich compartments like membranes, endoplasmic reticulum, and lipid droplets. In general, the photophysical characteristics were measured in aerated solutions to take into account the presence of oxygen in live cells. On the other hand, dichloromethane solutions were compared as aerated and degassed to confirm oxygen sensitivity and triplet character of the excited states of the complexes.
Absorption spectra were recorded at room temperature using a Cary 4000 UV/Vis spectrometer. Uncorrected steady state emission and excitation spectra were recorded on an Edinburgh FLSP980-S2S2-stm spectrometer equipped with: i) a temperature-monitored cuvette holder; ii) 450 W Xenon arc lamp; iii) double excitation and emission monochromators; iv) a Peltier cooled Hamamatsu R928P photomultiplier tube (spectral range 200-870 nm). Emission and excitation spectra were corrected for source intensity (lamp and grating) and emission spectral response (detector and grating) by a calibration curve supplied with the instrument. According to the approach described by Demas and Crosby, luminescence quantum yields (Φem) were measured in optically dilute solutions (O.D.<0.1 at excitation wavelength) obtained from absorption spectra on a wavelength scale [nm] and compared to the reference emitter by the following equation: […]
where A is the absorbance at the excitation wavelength (λ), I is the intensity of the excitation light at the excitation wavelength (λ), n is the refractive index of the solvent, D is the integrated intensity of the luminescence and Φ is the quantum yield. The subscripts r and x refer to the reference and the sample, respectively. The quantum yield determinations were performed at identical excitation wavelength for the sample and the reference, therefore cancelling the I(λr)/I(λx) term in the equation. The quantum yields of complexes were measured against Rubipy in water (Φr=0.028). Emission lifetimes (z) were determined with the time correlated single photon counting technique (TCSPC) with the same Edinburgh FLSP980-S2S2-stm spectrometer using either a pulsed picosecond LED (EPLED/EPL 377 nm, FHWM<800 ps) or a microsecond flashlamp. The goodness of fit was assessed by minimising the reduced χ^2 function and by visual inspection of the weighted residuals. The solvents used for the preparation of the solutions for the photophysical investigations were of LR grade and the water was deionised. Degassing of the dichlorometane solutions was performed using the freeze-pump-thaw method. Experimental uncertainties are estimated to be ±8% for lifetime determinations, ±20% for quantum yields, ±2 nm and ±5 nm for absorption and emission peaks, respectively.

[2] = Lipophilicity by shake-flask method (7.4-buffered PBS / n-octanol); type: physicochemical; conditions: 7.4-buffered PBS solution and n-octanol
Protocol: The lipophilicity of the iridium complexes was measured by the shake-flask method using 7.4-buffered PBS and n-octanol as solvents (Table 2). The values range between 1.49 and 2.68 are typical for cyclometalated iridium complexes that have not been bioconjugated. […] In general, neutral complexes have log D7.4 values above 2.00 and there is an increased in lipophilicity of extending the tetrazolato ligand with the addition of a phenyl spacer in [Ir(ppy)2(TzPyPhCN)], or by extending the conjugation on passing from pyridine to quinoline or isoquinoline for [Ir(ppy)2(TzQn)] and [Ir(ppy)2(TziQn)]. Methylation in all cases reduces lipophilicity to log D7.4 values […], with the same trend within the family of methylated complexes as previously observed for the neutral ones.

[3] = tested on: H9c2 rat cardiomyoblast cells; assay: Staining and co-staining of live H9c2 cells, confocal and two-photon microscopy; type: cell-based
Protocol: Live H9c2 rat cardiomyoblasts were incubated with the iridium complexes for 30 minutes. Complexes were made to a final concentration of 20 μM in the cell culture medium with DMSO concentration <0.2%. Under these conditions, the luminescence from the iridium complexes within the cells was detected via confocal microscopy under single-photon excitation (403 nm) or two-photon excitation (810-840 nm).
To determine the localisation of the iridium complexes, co-staining experiments were carried out with the use of ER-Tracker™ Red (endoplasmic reticulum), LysoTracker® Red DND-99 (acidic compartments), MitoTracker® Red (mitochondria), BODIPY® 500/510 C1, C12(fatty acid) or β-BODIPY® FL HPC (phospholipids). […] This difference was also in agreement with the trend of the quantum yield data illustrated before and detection of internalised complex by ICP-MS.
H9c2 rat cardiomyoblast cell line was a kind gift from Professor Janna Morrison (University of South Australia). The H9c2 cells were maintained in high-glucose (4500 mg/L) DMEM medium (Sigma-Aldrich, USA) containing 10% fetal bovine serum (FBS; In Vitro Technologies, USA) and 2 mM L-glutamine (Sigma-Aldrich, USA) at 37° C. and 5% CO2. The H9c2 cells were cultured in […] flasks, and cells (1×10^6 cells/mL) that had been passaged, from two up to five times were used for experiments. For live cell imaging and MTS assay, the H9c2 cells (1×10^5 cells/mL) were cultured overnight in either ibidi μ-Slide 8 wells in a final volume of 250 μL or 96-well microtiter plate in a final volume of 200 μL in absence of Ir-based molecular probes.
The H9c2 cells were incubated with 20 μM of Ir-based molecular probes for 30 minutes in FBS-free media (300 μL) at 37° C. and 5% CO2. These cells were washed twice with phosphate buffered saline (PBS) and once with FBS-free media, and then co-stained with either ER-Tracker™ Red (BODIPY® TR Glibenclamide), LysoTracker® Red DND-99, MitoTracker® Red CMXRos (1H,5H,11H,15H-Xantheno[2,3,4-ij:5,6,7-i′j′]diquinolizin-18-ium, 9-[4-(chloromethyl)phenyl]-2,3,6,7,12,13,16,17-octahydro-, chloride), β-BODIPY® FL C5-HPC (2-(4,4-Difluoro-5,7-Dimethyl-4-Bora-3a,4a-Diaza-s-Indacene-3-Pentanoyl)-1-Hexadecanoyl-sn-Glycero-3-Phosphocholine) or BODIPY® 500/510 C1, C12 (4,4-Difluoro-5-Methyl-4-Bora-3a,4a-Diaza-s-Indacene-3-Dodecanoic Acid), which were obtained from Life Technologies Australia Pty Ltd, Australia. Cell biology analysis was carried out with a minimum of two experimental groups. Imaging analysis was performed using a Nikon A1+ confocal microscope equipped with 403 nm, 488 nm, 561 nm and 640 nm solid-state lasers (Nikon, Japan) and OKOLab Microscope Incubator (Okolab USA Inc., USA). The final preparation of the images was conducted with Adobe Photoshop CC (Adobe Systems Inc., USA).
The H9c2 cells were incubated with 20 μM of Ir-based molecular probes for 30 minutes in FBS-free media (300 μL) at 37° C. and 5% CO2. These cells then were washed with phosphate buffered saline (PBS) and imaged using Zeiss LSM710 META NLO inverted microscope supplemented with a two-photon Mai-Tai®, tunable Ti:Sapphire femtosecond pulse laser (710-920 nm, Spectra-Physics). Fluorescence of Ir-based molecular probes was detected using the following settings: two-photon excitation wavelength 830 nm, beam splitter MBS 690+, emission interval 520-650 nm. The H9c2 cells were exposed to two-photon illumination between 810-840 nm. A continuum of lambda stack images was captured across the emission spectrum 416-728 nm. The images were acquired using a Plan-APOCHROMAT 63X/NA1.4 oil immersion objective. The final preparation of the images was conducted with Adobe Photoshop CC (Adobe Systems Inc., USA).

Emission λem ([1]; DCM, 10^−5 M) [nm] | Φaer, quantum yield ([1]; DCM, aerated) | Φdeaer, quantum yield ([1]; DCM) | logD7.4, distribution coefficient [2] | Compound | Absorption λabs [nm] (10^4ε [M^−1cm^−1]) ([1]; DCM, 10^−5 M) | τaer, excited state lifetime (relative weight in parentheses) ([1]; DCM, aerated) [ns] | τdeaer, excited state lifetime (relative weight in parentheses) ([1]; DCM) [ns] | knr ([1]; DCM) | kr ([1]; DCM) | Absorption λabs [nm] (10^4ε [M^−1cm^−1]) ([1]; H2O with 0.1% DMSO, 10^−5 M) | Emission λem ([1]; H2O with 0.1% DMSO, aerated) [nm] | Φ, quantum yield ([1]; H2O with 0.1% DMSO, aerated) | logD ([2]; pH 7.4, read-out: logD7.4, distribution coefficient) | cellular localisation (co-staining) ([3]; live H9c2, 20 μM, 30 minutes) | emission profile from cells ([3]; live H9c2, one-photon or two-photon excitation) | emission in the various solvents ([1]; dichloromethane, water, PBS, lysosomal fluid, ethyl laurate) | emission detected from stained cells ([3]; live H9c2, 20 μM, 30 minutes)
542 | 0.042 | 0.406 | 2.01 ± 0.05 | N#Cc1ccc2[n+](c1)[Ir]13([c]4cc(F)cc(F)c4-c4cccc[n+]41)([c]1cc(F)cc(F)c1-c1cccc[n+]13)[n]1nnnc1-2 [[Ir(F2ppy)2(TzPyCN)]] | – | 140 | 697 | 0.852 10^6s^−1 | 5.825 10^5s^−1 | 256 (4.83) nm (10^4ε [M^−1cm^−1]) and 302 (3.36) nm (10^4ε [M^−1cm^−1]) and 366 (1.16) nm (10^4ε [M^−1cm^−1]) | 552 | 0.057 | – | – | – | – | –
680 | 0.012 | 0.014 | – | C[n+]1nc2[n](n1)[Ir]13([c]4ccccc4-c4cccc[n+]41)([c]1ccccc1-c1cccc[n+]13)[n+]1cc(C#N)ccc1-2 [[Ir(ppy)2(MeTzPyCN)]^+] | – | – | – | – | – | – | – | – | – | – | – | appreciable emission only in dichloromethane solution | no emission was detected from stained cells

Compound | Emission λem ([1]; DCM, 10^−5 M) [nm] | Φaer, quantum yield ([1]; DCM, aerated) | Φdeaer, quantum yield ([1]; DCM) | logD7.4, distribution coefficient [2] | Absorption λabs [nm] (10^4ε [M^−1cm^−1]) ([1]; DCM, 10^−5 M) | τaer, excited state lifetime (relative weight in parentheses) ([1]; DCM, aerated) [ns] | τdeaer, excited state lifetime (relative weight in parentheses) ([1]; DCM) [ns] | knr ([1]; DCM) | kr ([1]; DCM) | Absorption λabs [nm] (10^4ε [M^−1cm^−1]) ([1]; H2O with 0.1% DMSO, 10^−5 M) | Emission λem ([1]; H2O with 0.1% DMSO, aerated) [nm] | Φ, quantum yield ([1]; H2O with 0.1% DMSO, aerated) | logD ([2]; pH 7.4, read-out: logD7.4, distribution coefficient) | cellular localisation (co-staining) ([3]; live H9c2, 20 μM, 30 minutes) | emission profile from cells ([3]; live H9c2, one-photon or two-photon excitation) | emission in the various solvents ([1]; dichloromethane, water, PBS, lysosomal fluid, ethyl laurate) | emission detected from stained cells ([3]; live H9c2, 20 μM, 30 minutes)
C[n+]1nc2[n](n1)[Ir]13([c]4cc(F)cc(F)c4-c4cccc[n+]41)([c]1cc(F)cc(F)c1-c1cccc[n+]13)[n+]1cc(C#N)ccc1-2 [[Ir(F2ppy)2(MeTzPyCN)]^+] | 600 | 0.057 | 0.188 | – | 250 (3.56) nm (10^4ε [M^−1cm^−1]) and 316 (1.28) nm (10^4ε [M^−1cm^−1]) and 356 (0.58) nm (10^4ε [M^−1cm^−1]) | 287 | 551 | 1.601 10^6s^−1 | 2.142 10^5s^−1 | 260 (4.12) nm (10^4ε [M^−1cm^−1]) and 309 (1.55) nm (10^4ε [M^−1cm^−1]) and 353 (0.66) nm (10^4ε [M^−1cm^−1]) | 636 | 0.005 | 1.86 ± 0.02 | staining pattern consistent with mitochondrial localisation | blue-shifted and almost superimposable bands between these cationic complexes and their neutral analogues | – | –
